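These data come from cells grown in 96-well plates and exposed to compound for 48 hours at five concentrations. GI50: concentration for 50% inhibition of growth. The concentration for full growth arrest is given as TGI.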
Experiments:
Assay in all cases: NCI tumour cell line growth inhibition, 48 h
P388 leukemia = test system: P388 leukemia
SN12K1 renal = test system: SN12K1 renal
P388/ADR leukemia = test system: P388/ADR leukemia
DLD-1 colon = test system: DLD-1 colon
HOP-18 NSCLC = test system: HOP-18 NSCLC
DU-145 prostate = test system: DU-145 prostate
T-47D breast = test system: T-47D breast
HS 578T breast = test system: HS 578T breast
MDA-MB-435 = test system: MDA-MB-435
BT-549 breast = test system: BT-549 breast
MDA-MB-231 breast = test system: MDA-MB-231 breast
MDA-N = test system: MDA-N
PC-3 prostate = test system: PC-3 prostate

Row | Compound | TGI (P388 leukemia) [µM] | TGI (SN12K1 renal) [µM] | TGI (P388/ADR leukemia) [µM] | TGI (DLD-1 colon) [µM] | TGI (HOP-18 NSCLC) [µM] | TGI (DU-145 prostate) [µM] | TGI (T-47D breast) [µM] | TGI (HS 578T breast) [µM] | TGI (MDA-MB-435) [µM] | TGI (BT-549 breast) [µM] | TGI (MDA-MB-231 breast) [µM] | TGI (MDA-N) [µM] | TGI (PC-3 prostate) [µM] | GI50 (DLD-1 colon) [µM]
1 | COc1cc(C2(c3ncc[nH]3)SSSCC2O)ccc1O (stereo unspecified) | > 48.1 | > 55.4 | > 54.8 | > 100 | > 100 | – | – | – | – | – | – | – | – | –
2 | CCOC(=O)/C(=N/Nc1ccccc1)N1C(=S)C=C(C)NN(C)C1=S | – | – | – | – | – | > 100 | > 100 | > 100 | > 100 | > 100 | > 100 | – | – | –
3 | CC(C)C1NC(=O)CC(c2ccccc2)N(N=O)C1c1ccccc1 (stereo unspecified) | > 100 | > 100 | > 100 | > 100 | > 100 | – | – | – | – | – | – | – | – | –
4 | Cc1c(N=C/C=C/c2ccccc2)c(=O)n(-c2ccccc2)n1C | – | – | – | – | – | > 100 | 62.4 | 69.8 | > 100 | 58.1 | > 100 | 54 | > 100 | –
5 | C/C(=N\NC(=O)c1ccccc1O)c1cccc(/C(C)=N/NC(=O)c2ccccc2O)n1.O=S(=O)([O-])[O-].[Fe+2] | – | – | – | > 100 | – | – | – | – | – | – | – | – | – | > 100

— PubChem BioAssay (NCI)
